Measurements from patent publication US20120100072A1, “PET IMAGING OF FIBROGENESIS” (GE HEALTHCARE LIMITED, priority 2009, published 2012).

Tests used:
alcoholic liver fibrosis = details: baboons; cited from earlier work
[1] = target: T1, membranes prepared from EA-Hy926 cells (integrin αvβ3) (Homo sapiens, UniProt P05106+P06756); assay: Competitive 125I-echistatin binding to membranes prepared from EA-Hy926 cells; details: competition with 125I-echistatin, 1 hour at 37° C., read-out: affinity (inhibition constant)
T1 construct: membranes from the human endothelial adenocarcinoma cell line EA-Hy926 were prepared; endogenous in cells; host or cells: EA-Hy926 (human endothelial cell line), purified membrane fraction
Procedure: The inhibition constant was measured using a previously-described membrane binding assay (Indrevoll et al, Bioorg & Med Chem Lett, 2006, 16, 6190-6193). In brief, membranes from the human endothelial adenocarcinoma cell line EA-Hy926 were prepared and the Kd calculated for the purified membrane fraction. A competitive binding assay was then established to measure inhibition constants. ^125I-echistatin (GE Healthcare; Code IM304) was used as the labelled ligand and cold echistatin as a reference standard. A total of sixteen dilutions of cold test compound (either cold echistatin or cold PET tracer) were prepared and mixed with a combination of ^125I-echistatin and membrane prior to incubation for 1 hour at 37° C. Following several washes, the bound material was harvested on a filter using a Skatron micro harvester. The filterspots were finally excised and counted in a Packard γ-counter.

rat livers = type: in vivo
Procedure: Outbred male Sprague Dawley rats (180-200 g; Charles River) were used in all bile duct ligation (BDL) and sham studies. After 6 days acclimatization rats were divided into 2 groups (BDL group and sham group). For the BDL animals, the abdomen was shaved and swabbed with betadine solution followed by 5 mg/kg carprofen subcutaneously (s.c.) and 5 mg/kg bupronorphine s.c. and under Isoflurane anaesthesia a mid-line laparotomy was performed and the common bile duct located. Bile duct was double ligated, the first ligation made between the junction of the hepatic ducts and the second above the entrance of the pancreatic ducts. The second group (sham animals) abdomen was shaved and swabbed with betadine solution followed by 5 mg/kg carprofen s.c. and 5 mg/kg bupronorphine s.c. Animals underwent sham surgery where bile duct was manipulated and a suture passed under the bile duct. Before closing 2-3 ml saline was administered into the peritoneum of each animal. […] Animals were closely monitored for the duration of the experiment.
For assessment of PET Tracer 1 in the BDL rat model, static PET images were acquired longitudinally (imaged at 60-90 minutes post-injection) at days 2, 5, 9, 15 and 30 post bile duct ligation surgery or sham surgery. […] Data was analysed using Asipro and Amide software. […]

Compound	effect on alcoholic liver fibrosis (alcoholic liver fibrosis)	Ki [1] [nM]	difference in uptake between BDL liver and sham (rat livers; day 30 post surgery)	difference in liver retention between BDL and sham operated animals (rat livers; days 2-15 post surgery (p<0.05))
Polyenephosphatidylcholine [Polyenephosphatidylcholine (PPC)]	prevented alcoholic liver fibrosis	–	–	–
N=C(N)NCCC[C@@H]1NC(=O)[C@@H]2CSSC[C@H](NC(=O)[C@H](CC(=O)O)NC(=O)CNC1=O)C(=O)N[C@@H](Cc1ccccc1)C(=O)N[C@H](C(=O)NCCOCCOCCOCCNC(=O)COCC(N)=O)CSCC(=O)N[C@@H](CCCCNC(=O)COCC(=O)NCCOCCOCCOCCOCCOCCNC(=O)CO/N=C/c1ccc([18F])cc1)C(=O)N2 [PET Tracer 1]	–	5 to 10	no significant difference	significant difference
